For six compounds, Ki results are on record in patent US7544683B2, “Cyclohexyl derivatives” (Hoffmann-La Roche Inc., priority 2007, dated 2009).

In this assay the target is T1, histamine 3 receptor (H3R) (Homo sapiens, UniProt Q9Y5N1).
T1 construct: expressed in transfected cells; host or cells: CHO cells
T1 sequence (Q9Y5N1 whole entry): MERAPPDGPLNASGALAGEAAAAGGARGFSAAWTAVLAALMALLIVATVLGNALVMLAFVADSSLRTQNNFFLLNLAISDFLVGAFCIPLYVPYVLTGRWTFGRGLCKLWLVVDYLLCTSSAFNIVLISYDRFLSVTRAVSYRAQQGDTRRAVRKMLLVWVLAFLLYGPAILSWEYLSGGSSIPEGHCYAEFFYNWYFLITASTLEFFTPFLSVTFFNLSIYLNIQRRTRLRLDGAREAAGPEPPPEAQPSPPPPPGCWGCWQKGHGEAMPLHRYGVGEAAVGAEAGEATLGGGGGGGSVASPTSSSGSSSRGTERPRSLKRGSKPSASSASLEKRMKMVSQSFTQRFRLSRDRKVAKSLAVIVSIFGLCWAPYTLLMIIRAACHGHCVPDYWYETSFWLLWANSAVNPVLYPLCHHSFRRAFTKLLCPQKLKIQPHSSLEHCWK
The assay is described as follows: Binding assay with 3H-(R)α-methylhistamine, competition binding on membranes of the human H3R-CHO cell line. Particulars: competition with 3H(R)α-methylhistamine (1 nM), Ki calculated from IC50 by Cheng-Prusoff. On the procedure: Binding Assay with ^3H-(R)α-methylhistamine
Saturation binding experiments were performed using HR3-CHO membranes prepared as described in Takahashi, K, Tokita, S., Kotani, H. (2003) J. Pharmacol. Exp. Therapeutics 307, 213-218.
An appropriate amount of membrane (60 to 80 μg protein/well) was incubated with increasing concentrations of ^3H(R)α-Methylhistamine di-hydrochloride (0.10 to 10 nM). Non specific binding was determined using a 200 fold excess of cold (R)α-Methylhistamine dihydrobromide (500 nM final concentration). The incubation was carried out at room temperature (in deep-well plates shaking for three hours). The final volume in each well was 250 μl. The incubation was followed by rapid filtration on GF/B filters (pre-soaked with 100 μl of 0.5% PEI in Tris 50 mM shaking at 200 rpm for two hours). The filtration was made using a cell-harvester and the filter plates were then washed five times with ice cold washing buffer containing 0.5 M NaCl. After harvesting, the plates were dried at 55° C. for 60 min, then we added scintillation fluid (Microscint 40, 40 microl in each well) and the amount of radioactivity on the filter was determined in Packard top-counter after shaking the plates for two hours at 200 rpm at room temperature.
Binding Buffer: 50 mM Tris-HCl pH 7.4 and 5 mM MgCl2×6H2O pH 7.4. Washing Buffer: 50 mM Tris-HCl pH 7.4 and 5 mM MgCl2×6H2O and 0.5 M NaCl pH 7.4.
Indirect measurement of affinity of H3R inverse agonists: twelve increasing concentrations (ranging from 10 μM to 0.3 nM) of the selected compounds were always tested in competition binding experiments using membrane of the human H3R-CHO cell line. An appropriate amount of protein, e.g. approximately 500 cpm binding of RAMH at Kd, were incubated for 1 hour at room temperature in 250 μl final volume in 96-well plates in presence of ^3H(R)α-methylhistamine (1 nM final concentration=Kd). Non-specific binding was determined using a 200 fold excess of cold (R)α-methylhistamine dihydrobromide.
All compounds were tested at a single concentration in duplicate. […] The concentration at which 50% inhibition of the radioligand ^3H(R)α-methylhistamine is obtained (the IC50) is determined from the linear regression of a plot of the logarithm of the concentration versus percent inhibition measured for the different concentrations. Ki's were calculated from IC50 based on Cheng-Prusoff equation (Cheng, Y, Prusoff, W H (1973) Biochem Pharmacol 22, 3099-3108): Ki=IC50/[1+D/Kd] wherein D is the concentration of the radioligand and Kd is the binding constant for the radioligand binding to the receptor under the conditions used in the competition experiment.
As for `CC(C)c1nnc(-c2ccc(O[C@H]3CC[C@H](C(=O)N4CCN(C(C)C)CC4)CC3)cc2)o1` [Example 31, trans-{4-[4-(5-Isopropyl-[1,3,4]oxadiazol-2-yl)-phenoxy]-cyclohexyl}-(4-isopropyl-piperazin-1-yl)-methanone], the Ki is 5.6 nM.

For `CC(C)N1CCN(C(=O)[C@H]2CC[C@H](Oc3ccc(-c4ccncc4)cc3)CC2)CC1` [Example 50, trans-(4-Isopropyl-piperazin-1-yl)-[4-(4-pyridin-4-yl-phenoxy)-cyclohexyl]-methanone], the Ki was 4.4 nM.

Turning to `O=C1COCCN1c1ccc(O[C@H]2CC[C@H](C(=O)N3CCN(C4CCC4)CC3)CC2)cc1` [Example 42, trans-4-{4-[4-(4-Cyclobutyl-piperazine-1-carbonyl)-cyclohexyloxy]-phenyl}-morpholin-3-one], the Ki is 6.9 nM.

As to `CNC(=O)c1csc(O[C@H]2CC[C@H](C(=O)N3CCN(C(C)C)CC3)CC2)n1` [Example 27, trans-2-[4-(4-Isopropyl-piperazine-1-carbonyl)-cyclohexyloxy]-thiazole-4-carboxylic acid methylamide], the Ki is 28.8 nM.

For the compound `CS(=O)(=O)c1ccc(O[C@H]2CC[C@H](C(=O)N3CCN(C4CCC4)CC3)CC2)nc1` [Example 13, trans-(4-Cyclobutyl-piperazin-1-yl)-[4-(5-methanesulfonyl-pyridin-2-yloxy)-cyclohexyl]-methanone], the Ki was 11.2 nM.

`O=C([C@H]1CC[C@H](Oc2ccc(-n3cncn3)cc2)CC1)N1CCN(C2CCC2)CC1` [Example 1, Trans-(4-Cyclobutyl-piperazin-1-yl)-[4-(4-[1,2,4]triazol-1-yl-phenoxy)-cyclohexyl]-methanone]: the Ki was 6.5 nM.

The Ki is the equilibrium dissociation constant of an inhibitor or competing ligand from its target.
